Values after ≈ are worked out from the molar mass of the structure shown.
Experiments:
Plasmodium falciparum = assay: Antiplasmodial activity against Plasmodium falciparum K1; type: functional, organism-based
[1] = system: Trypanosoma brucei rhodesiense; assay: Antitrypanosomal activity against Trypanosoma brucei rhodesiense; type: functional, organism-based
Trypanosoma cruzi = assay: Antitrypanosomal activity against Trypanosoma cruzi; type: functional, organism-based
Leishmania donovani = assay: Antileishmanial activity against Leishmania donovani; type: functional, organism-based
L6 = assay: Cytotoxicity against rat L6 cells; type: cell-based

| Structure (SMILES) | IC50 (Plasmodium falciparum) [µg/mL] | IC50 [1] [µg/mL] | IC50 (Trypanosoma cruzi) [µg/mL] | IC50 (Leishmania donovani) [µg/mL] | MIC (L6) [µg/mL] |
| --- | --- | --- | --- | --- | --- |
| COc1cc(O)c(-c2c(C)cc(OC)c3c(O)cccc23)c2c1[C@@H](C)N(C)[C@@H](C)C2 | 0.51 (≈ 1.25 µM) | 2.2 (≈ 5.4 µM) | 36.4 (≈ 89.3 µM) | 18.8 (≈ 46.1 µM) | 15.5 (≈ 38 µM) |
| COc1cccc2c(-c3c(O)cc(OC)c4c(C)nc(CO)cc34)c(C)cc(O)c12 [6-O-DEMETHYLANCISTROBENOMINE A] | 2.18 (≈ 5.38 µM) | 14.7 (≈ 36.3 µM) | 23.4 (≈ 57.7 µM) | > 30 | 59.9 (≈ 148 µM) |
| COc1cc(OC)c2c(C)nc(CO)cc2c1-c1c(C)cc(O)c2c(OC)cccc12 [ANCISTROBENOMINE A] | 0.76 (≈ 1.81 µM) | 1.3 (≈ 3.1 µM) | 4.8 (≈ 11.4 µM) | > 10 | 12.3 (≈ 29.3 µM) |
| Nc1nc(N)nc(Nc2ccc([As]3SCC(CO)S3)cc2)n1 (stereo unspecified) [MELARSOPROL] |  | 0.00095 |  |  |  |

— ChEMBL document CHEMBL1148975, “Ancistrobenomine a, the first naphthylisoquinoline oxygenated at Me-3, and related 5,1'-coupled alkaloids, from the "new" plant species ancistrocladusbenomensis” (J Nat Prod, 2004)
